# Earlier results, collected in patent publication US10694749B2, “Insecticide formulation” (Wellmark International, priority 2016, dated 2020).
# System: Mosquito Larvae
# Conditions: after ingestion
substance,measurement,value
Bacillus thuringiensis israelensis [BTI],time to death of the first larvae after ingesting the bacteria,15 to 20 min
